“Also recorded” adds a separate entry of the source.
Assays:
[1] = system: Oct4-GFP MEFs; assay: iPS reprogramming of Oct4-GFP MEFs: clones with ES like morphology and Oct4-GFP positive clones; format: cell-based, mouse; details: day 10 of reprogramming; culture up to three weeks
Experimental: (§1) Mouse fibroblasts were isolated from Oct4-GFP, Rosa26-LacZ and Hdac2^flax/flax embryos at E13.5 and cultured in fibroblast medium as described (Takahashi et al., 2007). Hdac2 was excised by infection of Hdac2^flax/flax MEFs with adeno-cre virus. Human dermal fibroblast were cultured in DMEM/F12, 15% FBS, penicillin/streptomycin and L-glutamine. Viral particles were generated by transfection of plated 293T cells with pLOVE vectors encoding miR302/367, Oct4, Sox2, Klf4, or N-myc along with pMD.G and psPAX2 vectors as described (Blelloch et al., 2007). Supernatant from the transfected cells were collected every 24 hr for 48 hrs and titered. The titered viral suspension was mixed with 0.5 μl (0.1 of 10 μg/mL polybrene (American Bioanalytical, MA) per milliliter of viral suspension and used to infect fibroblasts. After viral infection, mouse fibroblast were cultured in mouse ES medium supplemented with or without valproic acid at a final concentration of 2 mM for the indicated length of time. Infected human fibroblast were culture in human ES medium as described (Huangfu et al., 2008a; Takahashi et al., 2007).

[2] = system: human foreskin and dermal fibroblasts; assay: Reprogramming of human fibroblasts: colonies with human ES like morphology; format: cell-based
Experimental: as §1

[3] = system: Hdac1; assay: Western blot for Hdac1 in MEFs; format: cell-based, mouse; details: MEFs during miR302/367 reprogramming
Experimental: (§2) Total cell lysates were prepared for Western blotting as previously described (Trivedi et al., 2008). Equal amounts of protein were resolved by SDS-PAGE and transferred to polyvinylidenedifluoride membranes. Membranes were incubated with Hdac1 antibody (1:1000 dilution, Cell Signaling), Hdac2 antibody (1:1000 dilution, Invitrogen) or Hdac3 antibody (1:1000 dilution, Sigma). Primary antibody binding was visualized by HRP-conjugated secondary antibody and detected by enhanced chemiluminescence (LumiGlo, Cell Signaling). For loading control, membranes were reprobed with primary antibody against GAPDH (1:2500 dilution, Abeam).

[4] = system: Hdac2; assay: Western blot for Hdac2 in MEFs; format: cell-based, mouse; details: MEFs during miR302/367 reprogramming
Experimental: as §2

[5] = system: Hdac3; assay: Western blot for Hdac3 in MEFs; format: cell-based, mouse; details: MEFs during miR302/367 reprogramming
Experimental: as §2

[6] = system: MEFs; assay: CellTiter proliferation assay for MEFs; format: cell-based, mouse; details: wild-type and Hdac2-/- MEFs
Experimental: Proliferation assays for MEFs were performed using the CellTiter 96 Aqueous One Solution Cell Proliferation kit (Promega, Inc.). 20 μl of CellTiter Reagent, which functions by being incorporated by viable cells into a colorimetric product that can be measured at 490 nm, was added to 100 μL of culture medium, incubated at 37° C. […] absorbance was measured at 490 nm at 1.5 hours, 2.5 hours, and 4.5 hours.

[7] = system: Hdac2-/- MEFs; assay: miR302/367 reprogramming of Hdac2-/- MEFs; format: cell-based, mouse; details: Hdac2-/- MEFs transduced with miR302/367
Experimental: as §1
The Hdac2p^flox/flox allele was generated by flanking exon 2 with loxP recombination sites using the targeting vector depicted in FIG. 19A. […]

Row | Compound | iPS cell colony generation in MEFs [1] | requirement for and effect of VPA on reprogramming human fibroblasts by miR302/367 [2] | Hdac1 protein expression level [3] | Hdac2 protein level [4] | Hdac3 protein expression level [5] | proliferation rates in MEFs [6] | effect of VPA addition on number of iPS cell clones [7]
1 | miR367: miR367 expressed alone; sequence AAUUGCACUUUAGCAAUGGUGA (SEQ ID NO: 8) (listed as Homo sapiens) | did not reprogram fibroblasts |  |  |  |  |  | 
2 | CCCC(CCC)C(=O)O [VPA, valproic acid] |  | not required; also recorded: did not affect the efficiency of reprogramming | unchanged | caused degradation of Hdac2 protein | unchanged | did not affect proliferation rates | did not change the number of iPS cell clones

Reference: patent US9115345B2, “MicroRNA induction of pluripotential stem cells and uses thereof” (The Trustees Of The University Of Pennsylvania, priority 2010, dated 2015)
